Legend:
human CCK-B receptor = target: T1, human CCK-B receptor (Homo sapiens, UniProt P32239); assay: CCK-B receptor binding, transfected HeLa cell membranes, [125I]BH-sCCK-8; details: HeLa cell membranes stably transfected with human CCK-B receptor; 30 pM [125I]BH-sCCK-8
T1 construct: expressed in transfected cells; host or cells: HeLa cells (membranes), stably transfected
T1 sequence (P32239 1-447): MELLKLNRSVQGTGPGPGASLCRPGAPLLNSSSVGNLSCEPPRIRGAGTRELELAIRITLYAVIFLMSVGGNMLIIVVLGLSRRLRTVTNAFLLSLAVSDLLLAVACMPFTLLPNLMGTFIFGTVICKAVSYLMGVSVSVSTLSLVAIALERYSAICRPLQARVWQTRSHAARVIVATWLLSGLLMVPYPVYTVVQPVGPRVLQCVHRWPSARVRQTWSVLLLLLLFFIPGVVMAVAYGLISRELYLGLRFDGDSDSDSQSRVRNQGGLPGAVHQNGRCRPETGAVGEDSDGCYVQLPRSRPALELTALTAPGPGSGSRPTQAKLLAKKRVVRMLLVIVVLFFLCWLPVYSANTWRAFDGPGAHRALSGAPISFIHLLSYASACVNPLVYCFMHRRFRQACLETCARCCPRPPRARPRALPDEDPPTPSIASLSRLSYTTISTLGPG
Procedure: Alternatively the binding affinity of compounds of the invention for CCK-A and CCK-B receptors may be determined using HeLa cell membranes that are transfected with the human CCK-B receptor or, COS-M6 cell membranes that are transiently transfected with the human CCK-A receptor.
CCK-B receptor binding studies were carried out using HeLa cell membranes which had been stabily transfected with the human CCK-B receptor cloned from temporal cortex cDNA library.
The transfected HeLa cell membranes were incubated with 30 pM [^125 ]BH-sCCK-8 in the presence of various concentrations of the test compound (1 pM to 1 μM). All experiments were performed in an assay volume of 250 μl. Membranes were harvested onto GF/C glass fibre filter paper (Whatman, UK) by rapid filtration using a Cell Harvester (Brandel model M-24R) and washed three times with HEPES Wash buffer chilled to 4° C. The radioactivity trapped on individual filter discs was counted over 60 seconds using a gamma counter (Mini Gamma counter, LKB, Wallac, Finland) at a counting efficiency of 77%. A control experiment was also carded out in the absence of a test compound.
Analysis of the data was performed by computer-assisted non-linear regression (ALLFIT programmes DeLean et al., 1978;). IC50 values for the test compounds were convened to Ki values using the Cheng & Prussof equation (Ki =IC50 /(1+[L]/KD)) (Cheng and Prussof, 1973).

[1] = untoward effects in the gastrin fistula rat; assay type: in vivo; details: 0.3 and 1 mg/kg iv
Excerpt: (§1) The compounds of the invention are essential non-toxic a theraapeutically active doses.

gastric acid secretion = gastric acid secretion in the gastrin fistula rat; assay type: in vivo; details: 0.3 and 1 mg/kg iv
Excerpt: as §1

Row | Structure (SMILES) | Ki (human CCK-B receptor) [nM] | untoward effects [1] | gastric acid secretion (gastric acid secretion)
1 | O=C(O)Cc1cccc(NC(=O)NC2C(=O)N(CC(=O)N3CCCC3)c3ccccc3N(c3ccccc3F)C2=O)c1 (stereo not drawn) [Example 3, (3-{3-[1-(2-Fluoro-phenyl)-2,4-dioxo-5-(2-oxo-2-pyrrolidin-1-yl-ethyl)-2,3,4,5-tetrahydro-1H-benzo[b][1,4]diazepin-3-yl]-ureido}-phenyl)-acetic acid] | 3.98 |  | 
2 | O=C(Nc1ccc(F)cc1)NC1C(=O)N(CC(=O)N2CCCC2)c2ccccc2N(C2CCCCC2)C1=O (single isomer, unassigned) [1 (isomer 2), 1-[1-Cyclohexyl-2,4-dioxo-5-(2-oxo-2-pyrrolidin-1-yl-ethyl)-2,3,4,5-tetrahydro-1H-benzo[b][1.4]diazepin-3-yl]-3-(4-fluoro-phenyl)urea] | 7.94 |  | 
3 | O=C(Nc1ccc(F)cc1)NC1C(=O)N(CC(=O)N2CCCC2)c2ccccc2N(C2CCCCC2)C1=O (stereo not drawn) [Example 1, 1-[1-Cyclohexyl-2,4-dioxo-5-(2-oxo-2-pyrrolidin-1-yl-ethyl)-2,3,4,5-tetrahydro-1H-benzo[b][1.4]diazepin-3-yl]-3-(4-fluoro-phenyl)urea] | 3.16 |  | 
4 | O=C(Nc1cccc(-c2nn[nH]n2)c1)NC1C(=O)N(CC(=O)N2CCCC2)c2ccccc2N(c2ccccc2)C1=O (stereo not drawn) [Example 14] | 3.16 |  | 
5 | CC1(C)CCCN(C(=O)CN2C(=O)C(NC(=O)Nc3cccc(C(=O)O)c3)C(=O)N(c3ccccc3F)c3ccccc32)C1 (stereo not drawn) [Example 4, 3-{3-[1-[2-(3,3-Dimethyl-piperidin-1-yl)-2-oxo-ethyl]-5-(2-fluoro-phenyl)-2,4-dioxo-2,3,4,5-tetrahydro-1H-benzo[b][1,4]diazepin-3-yl]-ureido}-benzoic acid] | 1.58 |  | 
6 | CC1(C)CCCN(C(=O)CN2C(=O)C(NC(=O)Nc3ccc(F)cc3)C(=O)N(c3ccccc3F)c3ccccc32)C1 (stereo not drawn) [Example 20] | 2 |  | 
7 | Cc1cccc(NC(=O)NC2C(=O)N(CC(=O)N3CCCC3)c3ccccc3N(c3ccccc3)C2=O)c1 (stereo not drawn) [Example 15] | 1.58 |  | 
8 | O=C(Nc1ccc(F)cc1)NC1C(=O)N(CC(=O)N2CCCC2)c2ccccc2N(C2CCCCC2)C1=O (single isomer, unassigned) [Example 1 (isomer 1), 1-[1-Cyclohexyl-2,4-dioxo-5-(2-oxo-2-pyrrolidin-1-yl-ethyl)-2,3,4,5-tetrahydro-1H-benzo[b][1.4]diazepin-3-yl]-3-(4-fluoro-phenyl)urea] | 3.16 | no untoward effects were observed | significally inhibited

The next lines start with results.

Row | Ki (human CCK-B receptor) [nM] | untoward effects [1] | Structure (SMILES) | gastric acid secretion (gastric acid secretion)
9 | 5.01 |  | O=C(Nc1cccc(F)c1)NC1C(=O)N(CC(=O)N2CCCC2)c2ccccc2N(C2CCCCC2)C1=O (stereo not drawn) [Example 7] | 
10 | 1 |  | CN(C)c1cccc(NC(=O)NC2C(=O)N(CC(=O)N3CCCC3)c3ccccc3N(C3CCCCC3)C2=O)c1 (stereo not drawn) [Example 12] | 
11 | 2 |  | O=C(Nc1cccc(C(=O)O)c1)NC1C(=O)N(CC(=O)N2CCCC2)c2ccccc2N(C2CCCCC2)C1=O (stereo not drawn) [Example 2, 3-{3-[1-Cyclohexyl-2,4-dioxo-5-(2-oxo-2-pyrrolidin-1-yl-ethyl)-2,3,4,5-tetrahydro-1H-benzo[b][1.4]diazepin-3-yl]-ureido}-benzoic acid] | 
12 | 2.51 |  | O=C(Nc1cccc([N+](=O)[O-])c1)NC1C(=O)N(CC(=O)N2CCCC2)c2ccccc2N(C2CCCCC2)C1=O (stereo not drawn) [Example 8] | 
13 | 3.98 |  | O=C(Nc1ccccc1)NC1C(=O)N(CC(=O)N2CCCC2)c2ccccc2N(C2CCCCC2)C1=O (stereo not drawn) [Example 10] | 

Reference: patent US5585376A, “1,5-benzodiazepine derivatives having CCK and/or gastrin antagonistic activity” (Glaxo Wellcome Inc., priority 1993, dated 1996)
